Assay results reported in patent US11739098B2 (BRISTOL-MYERS SQUIBB COMPANY, priority 2017, dated 2023).

Tests used:
Format in all cases: cell-based
[1] = target: T1, human TLR9 (Homo sapiens, UniProt Q9NR96); experiment: TLR9 inhibition reporter assay (HEK-Blue cells, SEAP reporter, ODN2006 stimulation); settings: HEK-Blue cells overexpressing human TLR9, SEAP reporter, ODN2006 5 nM
T1 construct: host or cells: HEK-Blue cells (HEK293-derived reporter line)
T1 sequence (Q9NR96 26-1032): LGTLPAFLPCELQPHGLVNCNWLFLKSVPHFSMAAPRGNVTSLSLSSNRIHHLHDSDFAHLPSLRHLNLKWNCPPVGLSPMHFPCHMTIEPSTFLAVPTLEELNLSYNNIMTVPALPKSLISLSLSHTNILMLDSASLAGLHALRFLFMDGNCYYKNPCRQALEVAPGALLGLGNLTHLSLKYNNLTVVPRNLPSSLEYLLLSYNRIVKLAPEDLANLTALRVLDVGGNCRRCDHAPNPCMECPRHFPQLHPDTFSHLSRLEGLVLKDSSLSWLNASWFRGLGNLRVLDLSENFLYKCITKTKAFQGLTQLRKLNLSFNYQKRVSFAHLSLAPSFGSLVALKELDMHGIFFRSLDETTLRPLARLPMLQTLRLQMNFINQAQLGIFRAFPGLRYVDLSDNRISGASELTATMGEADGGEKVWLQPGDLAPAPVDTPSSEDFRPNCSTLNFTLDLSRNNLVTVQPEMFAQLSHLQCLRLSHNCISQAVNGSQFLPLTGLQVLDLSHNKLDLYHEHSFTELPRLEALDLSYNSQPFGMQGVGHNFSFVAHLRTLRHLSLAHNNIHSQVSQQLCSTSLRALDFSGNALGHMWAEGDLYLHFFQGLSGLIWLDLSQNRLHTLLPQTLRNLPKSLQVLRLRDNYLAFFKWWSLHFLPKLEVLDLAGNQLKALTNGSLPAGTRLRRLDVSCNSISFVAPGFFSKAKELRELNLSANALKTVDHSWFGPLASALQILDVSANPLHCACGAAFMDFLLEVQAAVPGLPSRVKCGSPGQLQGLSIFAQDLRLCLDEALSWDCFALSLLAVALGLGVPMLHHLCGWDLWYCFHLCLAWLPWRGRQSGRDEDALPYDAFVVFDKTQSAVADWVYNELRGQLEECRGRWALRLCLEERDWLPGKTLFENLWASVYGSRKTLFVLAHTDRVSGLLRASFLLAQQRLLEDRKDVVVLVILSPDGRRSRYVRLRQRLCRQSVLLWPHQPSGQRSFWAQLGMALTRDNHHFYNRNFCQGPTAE
Experimental: (§1) TLR7/8/9 Inhibition Reporter Assays
(§2) HEK-Blue™-cells (Invivogen) overexpressing human TLR7, TLR8 or TLR9 receptors were used for screening inhibitors of these receptors using an inducible SEAP (secreted embryonic alkaline phosphatase) reporter gene under the control of the IFN-β minimal promoter fused to five NF-κB and AP-1-binding sites. Briefly, cells are seeded into Greiner 384 well plates (15000 cells per well for TLR7, 20,000 for TLR8 and 25,000 for TLR9) and then treated with test compounds in DMSO to yield a final dose response concentration range of 0.05 nM-50 μM. After a 30 minute compound pre-treatment at room temperature, the cells are then stimulated with a TLR7 ligand (gardiquimod at a final concentration of 7.5 μM), TLR8 ligand (R848 at a final concentration of 15.9 μM) or TLR9 ligand (ODN2006 at a final concentration of 5 nM) to activate NF-κB and AP-1 which induce the production of SLAP After a 22 hour incubation at […], SLAP levels are determined with the addition of HLK-Blue™ Detection reagent (Invivogen), a cell culture medium that allows for detection of SLAP, according to manufacturer's specifications. The percent inhibition is determined as the […] in the HEK-Blue signal present in wells treated with agonist plus DMSO alone compared to wells treated with a known inhibitor.

[2] = target: T2, human TLR8 (Homo sapiens, UniProt Q9NR97); experiment: TLR8 inhibition reporter assay (HEK-Blue cells, SEAP reporter, R848 stimulation); settings: HEK-Blue cells overexpressing human TLR8, SEAP reporter, R848 15.9 μM
T2 construct: host or cells: HEK-Blue cells (HEK293-derived reporter line)
T2 sequence (Q9NR97 27-1041): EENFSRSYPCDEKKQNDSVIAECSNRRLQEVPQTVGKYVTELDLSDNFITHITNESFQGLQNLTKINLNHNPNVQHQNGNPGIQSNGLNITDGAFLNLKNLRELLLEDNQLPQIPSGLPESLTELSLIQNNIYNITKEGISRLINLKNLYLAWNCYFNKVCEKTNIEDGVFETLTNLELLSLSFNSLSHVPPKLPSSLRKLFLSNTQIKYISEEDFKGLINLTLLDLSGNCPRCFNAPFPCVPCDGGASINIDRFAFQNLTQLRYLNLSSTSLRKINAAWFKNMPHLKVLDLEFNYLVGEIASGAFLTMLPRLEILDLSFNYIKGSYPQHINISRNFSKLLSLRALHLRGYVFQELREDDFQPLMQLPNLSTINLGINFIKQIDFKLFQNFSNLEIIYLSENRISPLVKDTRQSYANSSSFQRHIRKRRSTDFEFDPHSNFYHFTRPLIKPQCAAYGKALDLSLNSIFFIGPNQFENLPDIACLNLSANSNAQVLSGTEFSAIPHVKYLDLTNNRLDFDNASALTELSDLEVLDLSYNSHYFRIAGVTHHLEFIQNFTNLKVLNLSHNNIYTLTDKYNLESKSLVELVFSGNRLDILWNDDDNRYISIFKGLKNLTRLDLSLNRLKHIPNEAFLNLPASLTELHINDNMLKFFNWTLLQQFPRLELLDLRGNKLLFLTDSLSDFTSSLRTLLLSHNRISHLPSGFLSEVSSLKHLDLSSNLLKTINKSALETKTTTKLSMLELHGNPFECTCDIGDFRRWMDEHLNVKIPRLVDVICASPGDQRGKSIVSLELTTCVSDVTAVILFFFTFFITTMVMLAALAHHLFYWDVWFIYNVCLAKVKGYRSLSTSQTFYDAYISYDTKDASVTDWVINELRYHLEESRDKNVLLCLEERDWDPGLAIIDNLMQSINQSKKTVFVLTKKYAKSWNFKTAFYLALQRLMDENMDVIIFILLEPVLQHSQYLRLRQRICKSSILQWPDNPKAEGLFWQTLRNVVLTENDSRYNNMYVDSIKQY
Experimental: as §1, §2

[3] = target: T3, human TLR7 (Homo sapiens, UniProt Q9NYK1); experiment: TLR7 inhibition reporter assay (HEK-Blue cells, SEAP reporter, gardiquimod stimulation); settings: HEK-Blue cells overexpressing human TLR7, SEAP reporter, gardiquimod 7.5 μM
T3 construct: host or cells: HEK-Blue cells (HEK293-derived reporter line)
T3 sequence (Q9NYK1 27-1049): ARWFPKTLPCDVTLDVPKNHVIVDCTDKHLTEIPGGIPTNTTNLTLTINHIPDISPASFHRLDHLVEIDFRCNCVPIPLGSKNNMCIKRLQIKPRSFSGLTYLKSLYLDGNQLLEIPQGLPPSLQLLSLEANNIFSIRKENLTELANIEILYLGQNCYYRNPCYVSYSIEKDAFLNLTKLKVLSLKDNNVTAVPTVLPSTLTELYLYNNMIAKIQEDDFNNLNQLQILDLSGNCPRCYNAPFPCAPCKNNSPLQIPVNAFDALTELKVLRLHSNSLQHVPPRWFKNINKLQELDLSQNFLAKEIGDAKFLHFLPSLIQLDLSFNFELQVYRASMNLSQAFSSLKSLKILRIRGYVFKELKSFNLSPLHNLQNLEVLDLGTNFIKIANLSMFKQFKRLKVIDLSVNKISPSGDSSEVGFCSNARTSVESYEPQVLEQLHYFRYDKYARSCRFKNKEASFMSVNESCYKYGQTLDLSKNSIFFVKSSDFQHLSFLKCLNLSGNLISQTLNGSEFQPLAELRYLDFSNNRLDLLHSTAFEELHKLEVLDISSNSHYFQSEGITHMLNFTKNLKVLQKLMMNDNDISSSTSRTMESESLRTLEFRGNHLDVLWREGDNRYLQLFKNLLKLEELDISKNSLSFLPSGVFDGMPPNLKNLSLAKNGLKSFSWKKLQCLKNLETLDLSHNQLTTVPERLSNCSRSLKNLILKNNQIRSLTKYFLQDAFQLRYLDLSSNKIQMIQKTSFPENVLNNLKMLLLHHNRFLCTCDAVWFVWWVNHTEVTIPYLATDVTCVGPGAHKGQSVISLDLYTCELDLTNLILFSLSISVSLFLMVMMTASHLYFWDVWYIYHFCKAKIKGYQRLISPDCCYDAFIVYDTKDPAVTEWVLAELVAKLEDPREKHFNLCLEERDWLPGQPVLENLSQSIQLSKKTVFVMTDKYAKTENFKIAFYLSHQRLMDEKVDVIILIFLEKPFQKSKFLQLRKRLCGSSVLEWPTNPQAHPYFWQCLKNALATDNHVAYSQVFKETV
Experimental: as §1, §2

SMILES | IC50 [1] | IC50 [2] | IC50 [3]
CCc1c(-c2ccnc3[nH]ncc23)[nH]c2ccc(C3CCNCC3O)cc12 (stereo not drawn) [Example 175, 4-(3-ethyl-2-(1H-pyrazolo[3,4-b]pyridin-4-yl)-1H-indol-5-yl)piperidin-3-ol] | 1000 to 50000 nM | 100 to 1000 nM | 100 to 1000 nM
Cc1cc(-c2[nH]c3ccc(C4CCN(Cc5cnn[nH]5)CC4)cc3c2C(C)C)cn2nnnc12 [Example 883, 6-(5-(1-((1H-1,2,3-triazol-5-yl)methyl)piperidin-4-yl)-3-isopropyl-1H-indol-2-yl)-8-methyltetrazolo[1,5-a]pyridine] | 1000 to 50000 nM | < 100 nM | < 100 nM
Cc1nnn2ccc(-c3[nH]c4ccc(C5CCN(CC(N)=O)CC5)cc4c3C(C)C)cc12 [Example 317, 2-(4-(3-isopropyl-2-(3-methyl-[1,2,3]triazolo[1,5-a]pyridin-5-yl)-1H-indol-5-yl)piperidin-1-yl)acetamide] | 1000 to 50000 nM | < 100 nM | < 100 nM
CCc1c(-c2ccnc3[nH]ccc23)[nH]c2ccc(C3CCNCC3)cc12 [Example 236, 4-(3-ethyl-5-(piperidin-4-yl)-1H-indol-2-yl)-1H-pyrrolo[2,3-b]pyridine] | 100 to 1000 nM | < 100 nM | < 100 nM
Cc1nc2cc(-c3[nH]c4ccc(C5CCN(CC(=O)N(C)C)CC5)cc4c3C(C)C)cc(C)c2o1 [Example 338, 2-(4-(2-(2,7-dimethylbenzo [d]oxazol-5-yl)-3-isopropyl-1H-indol-5-yl)piperidin-1-yl)-N,N-dimethylacetamide] | 1000 to 50000 nM | 100 to 1000 nM | < 100 nM
CC(C)c1c(-c2ccn3nccc3c2)[nH]c2ccc(C3CCN(CC(=O)N(C)C)CC3)cc12 [Example 441, 2-(4-(3-isopropyl-2-(pyrazolo[1,5-a]pyridin-5-yl)-1H-indol-5-yl)piperidin-1-yl)-N,N-dimethylacetamide] | 1000 to 50000 nM | < 100 nM | < 100 nM
CC(C)c1c(-c2ccc(C#N)c3ncccc23)[nH]c2ccc(C3CCNCC3)cc12 [Example 109, 5-(3-isopropyl-5-(piperidin-4-yl)-1H-indol-2-yl)quinoline-8-carbonitrile] | 100 to 1000 nM | < 100 nM | < 100 nM

Now from value to compound:

IC50 [1] | IC50 [2] | IC50 [3] | SMILES
> 50000 nM | < 100 nM | < 100 nM | CC(C)c1c(-c2ccnc3[nH]ncc23)[nH]c2ccc(C3CCN(C(=O)CS(C)(=O)=O)CC3)cc12 [Example 614, 1-(4-(3-isopropyl-2-(1H-pyrazolo[3,4-b]pyridin-4-yl)-1H-indol-5-yl)piperidin-1-yl)-2-(methylsulfonyl)ethan-1-one]
1000 to 50000 nM | < 100 nM | < 100 nM | COc1ncc(CN2CCC(c3ccc4[nH]c(-c5ccnc6[nH]ncc56)c(C(C)C)c4c3)CC2)cn1 [Example 909, 4-(3-isopropyl-5-(1-((2-methoxypyrimidin-5-yl)methyl)piperidin-4-yl)-1H-indol-2-yl)-1H-pyrazolo[3,4-b]pyridine]
1000 to 50000 nM | 1000 to 50000 nM | 1000 to 50000 nM | CC(C)c1c(-c2ccnc3c2ncn3C)[nH]c2ccc(C3CCNCC3)cc12 [Example 44, 7-(3-isopropyl-5-(piperidin-4-yl)-1H-indol-2-yl)-3-methyl-3H-imidazo[4,5-b]pyridine]
100 to 1000 nM | < 100 nM | < 100 nM | CC(C)c1c(-c2ccnc3[nH]ncc23)[nH]c2ccc(C3CCN(C(=O)CN4CC[C@@H](N(C)C)C4)CC3)cc12 [Example 582, (R)-2-(3-(dimethylamino)pyrrolidin-1-yl)-1-(4-(3-isopropyl-2-(1H-pyrazolo[3,4-b]pyridin-4-yl)-1H-indol-5-yl)piperidin-1-yl)ethan-1-one]
100 to 1000 nM | < 100 nM | < 100 nM | COc1cc(CN(C)C)cc(CN2CCC(c3ccc4[nH]c(-c5ccnc6[nH]ncc56)c(C(C)C)c4c3)CC2)c1O [Example 924, 4-((dimethylamino)methyl)-2-((4-(3-isopropyl-2-(1H-pyrazolo[3,4-b]pyridin-4-yl)-1H-indol-5-yl)piperidin-1-yl)methyl)-6-methoxyphenol]
